PubChem BioAssay AID1918934 (Molecular Pharmacology Branch, DTP, NCI, 2023)

Tested on: 292921-168-R-J2-PDC complex spheroid viability
Assay: Anticancer human tumor 292921-168-R-J2-PDC patient-derived pancreatic carcinoma cell line growth inhibition
Conditions: for IC50: curve of first compound; for viability, T/C: stronger effect = lower value
Procedure, shortened: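 Multicellular complex spheroids of tumor cells with human endothelial cells (HUVEC) and mesenchymal stem cells; the LSD1 inhibitor iadademstat was combined with standard-of-care or investigational agents. Top concentration at or near clinical Cmax, half-log dilutions; final DMSO ≤0.25%.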

[1] = second compound 0.1 µM, first compound 0.0316 µM
[2] = second compound 0.1 µM, first compound 0.1 µM
[3] = second compound 0.1 µM, first compound 0.316 µM
[4] = second compound 0.1 µM, first compound 1 µM
[5] = second compound 0.316 µM, first compound 0.0316 µM
[6] = second compound 0.316 µM, first compound 0.1 µM
[7] = second compound 0.316 µM, first compound 0.316 µM
[8] = second compound 0.316 µM, first compound 1 µM
[9] = second compound 1 µM, first compound 0.0316 µM
[10] = second compound 1 µM, first compound 0.1 µM
[11] = second compound 1 µM, first compound 0.316 µM
[12] = second compound 1 µM, first compound 1 µM
[13] = second compound 3.16 µM, first compound 0.0316 µM
[14] = second compound 3.16 µM, first compound 0.1 µM
[15] = second compound 3.16 µM, first compound 0.316 µM
[16] = second compound 3.16 µM, first compound 1 µM
[17] = second compound 10 µM, first compound 0.0316 µM
[18] = second compound 10 µM, first compound 0.1 µM
[19] = second compound 10 µM, first compound 0.316 µM
[20] = second compound 10 µM, first compound 1 µM
[21] = second compound 0.1 µM, first compound 0.00949 µM
[22] = second compound 0.1 µM, first compound 0.03 µM
[23] = second compound 0.1 µM, first compound 0.0949 µM
[24] = second compound 0.1 µM, first compound 0.3 µM
[25] = second compound 0.1 µM, first compound 0.949 µM
[26] = second compound 0.1 µM, first compound 3 µM
[27] = second compound 0.316 µM, first compound 0.00949 µM
[28] = second compound 0.316 µM, first compound 0.03 µM
[29] = second compound 0.316 µM, first compound 0.0949 µM
[30] = second compound 0.316 µM, first compound 0.3 µM
[31] = second compound 0.316 µM, first compound 0.949 µM
[32] = second compound 0.316 µM, first compound 3 µM
[33] = second compound 1 µM, first compound 0.00949 µM
[34] = second compound 1 µM, first compound 0.03 µM
[35] = second compound 1 µM, first compound 0.0949 µM
[36] = second compound 1 µM, first compound 0.3 µM
[37] = second compound 1 µM, first compound 0.949 µM
[38] = second compound 1 µM, first compound 3 µM
[39] = second compound 3.16 µM, first compound 0.00949 µM
[40] = second compound 3.16 µM, first compound 0.03 µM
[41] = second compound 3.16 µM, first compound 0.0949 µM
[42] = second compound 3.16 µM, first compound 0.3 µM
[43] = second compound 3.16 µM, first compound 0.949 µM
[44] = second compound 3.16 µM, first compound 3 µM
[45] = second compound 10 µM, first compound 0.00949 µM
[46] = second compound 10 µM, first compound 0.03 µM
[47] = second compound 10 µM, first compound 0.0949 µM
[48] = second compound 10 µM, first compound 0.3 µM
[49] = second compound 10 µM, first compound 0.949 µM
[50] = second compound 10 µM, first compound 3 µM
[51] = second compound 0.1 µM, first compound 0.00316 µM
[52] = second compound 0.1 µM, first compound 0.01 µM
[53] = second compound 0.316 µM, first compound 0.00316 µM
[54] = second compound 0.316 µM, first compound 0.01 µM
[55] = second compound 1 µM, first compound 0.00316 µM
[56] = second compound 1 µM, first compound 0.01 µM
[57] = second compound 3.16 µM, first compound 0.00316 µM
[58] = second compound 3.16 µM, first compound 0.01 µM
[59] = second compound 10 µM, first compound 0.00316 µM
[60] = second compound 10 µM, first compound 0.01 µM
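Also: seven day compound exposure before luminescent viability read.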
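For viability, T/C in this document: 100% = DMSO vehicle control wells.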

## CC1(C)CCC(CN2CCN(c3ccc(C(=O)NS(=O)(=O)c4ccc(NCC5CCOCC5)c([N+](=O)[O-])c4)c(Oc4cnc5[nH]ccc5c4)c3)CC2)=C(c2ccc(Cl)cc2)C1 + NC1CCC(NC2CC2c2ccccc2)CC1
Second compound 0.1 µM
  IC50: 1640 nM
Second compound 0.316 µM
  IC50: 1310 nM
Second compound 1 µM
  IC50: 1330 nM
Second compound 3.16 µM
  IC50: 1260 nM
Second compound 10 µM
  IC50: 1110 nM
[1]
  viability, T/C: 63.5%
[2]
  viability, T/C: 71.4%
[3]
  viability, T/C: 73.3%
[4]
  viability, T/C: 72.4%
Second compound 0.1 µM, first compound 3.16 µM
  viability, T/C: 23.2%
Second compound 0.1 µM, first compound 10 µM
  viability, T/C: 0.18%
[5]
  viability, T/C: 66.3%
[6]
  viability, T/C: 60.1%
[7]
  viability, T/C: 68.2%
[8]
  viability, T/C: 60.1%
Second compound 0.316 µM, first compound 3.16 µM
  viability, T/C: 15.8%
Second compound 0.316 µM, first compound 10 µM
  viability, T/C: 0.25%
[9]
  viability, T/C: 53%
[10]
  viability, T/C: 58.8%
[11]
  viability, T/C: 65.4%
[12]
  viability, T/C: 67.6%
Second compound 1 µM, first compound 3.16 µM
  viability, T/C: 16.2%
Second compound 1 µM, first compound 10 µM
  viability, T/C: 0.26%
[13]
  viability, T/C: 58.1%
[14]
  viability, T/C: 60.9%
[15]
  viability, T/C: 62.3%
[16]
  viability, T/C: 59.4%
Second compound 3.16 µM, first compound 3.16 µM
  viability, T/C: 12.2%
Second compound 3.16 µM, first compound 10 µM
  viability, T/C: 0.14%
[17]
  viability, T/C: 64.2%
[18]
  viability, T/C: 64%
[19]
  viability, T/C: 66.4%
[20]
  viability, T/C: 53.4%
Second compound 10 µM, first compound 3.16 µM
  viability, T/C: 12.7%
Second compound 10 µM, first compound 10 µM
  viability, T/C: 0.23%

## CCN(c1cc(-c2ccc(CN3CCOCC3)cc2)cc(C(=O)NCc2c(C)cc(C)[nH]c2=O)c1C)C1CCOCC1 + NC1CCC(NC2CC2c2ccccc2)CC1
Second compound 0.1 µM
  IC50: 953 nM
Second compound 0.316 µM
  IC50: 694 nM
Second compound 1 µM
  IC50: 647 nM
Second compound 3.16 µM
  IC50: 649 nM
Second compound 10 µM
  IC50: 453 nM
[21]
  viability, T/C: 67.3%
[22]
  viability, T/C: 69.7%
[23]
  viability, T/C: 76.6%
[24]
  viability, T/C: 63.5%
[25]
  viability, T/C: 50.6%
[26]
  viability, T/C: 21.3%
[27]
  viability, T/C: 77.2%
[28]
  viability, T/C: 71.7%
[29]
  viability, T/C: 66.6%
[30]
  viability, T/C: 66.8%
[31]
  viability, T/C: 44%
[32]
  viability, T/C: 18.4%
[33]
  viability, T/C: 60%
[34]
  viability, T/C: 61.8%
[35]
  viability, T/C: 67.6%
[36]
  viability, T/C: 61%
[37]
  viability, T/C: 44.3%
[38]
  viability, T/C: 17.7%
[39]
  viability, T/C: 59.8%
[40]
  viability, T/C: 68.4%
[41]
  viability, T/C: 68.1%
[42]
  viability, T/C: 57.6%
[43]
  viability, T/C: 45.6%
[44]
  viability, T/C: 18.5%
[45]
  viability, T/C: 62.8%
[46]
  viability, T/C: 64.3%
[47]
  viability, T/C: 63.4%
[48]
  viability, T/C: 56.8%
[49]
  viability, T/C: 37.4%
[50]
  viability, T/C: 15.8%

## COc1cc(Nc2ncc3c(n2)-c2ccc(Cl)cc2C(c2c(F)cccc2OC)=NC3)ccc1C(=O)O + NC1CCC(NC2CC2c2ccccc2)CC1
Second compound 0.1 µM
  IC50: < 3.16 nM
Second compound 0.316 µM
  IC50: < 3.16 nM
Second compound 1 µM
  IC50: < 3.16 nM
Second compound 3.16 µM
  IC50: < 3.16 nM
Second compound 10 µM
  IC50: < 3.16 nM
[51]
  viability, T/C: 32.5%
[52]
  viability, T/C: 37.7%
[1]
  viability, T/C: 33.5%
[2]
  viability, T/C: 28.6%
[3]
  viability, T/C: 22.4%
[4]
  viability, T/C: 16.5%
[53]
  viability, T/C: 31.7%
[54]
  viability, T/C: 39.2%
[5]
  viability, T/C: 32.5%
[6]
  viability, T/C: 24.6%
[7]
  viability, T/C: 22.5%
[8]
  viability, T/C: 14.3%
[55]
  viability, T/C: 35.6%
[56]
  viability, T/C: 34.7%
[9]
  viability, T/C: 34.8%
[10]
  viability, T/C: 29.3%
[11]
  viability, T/C: 18.3%
[12]
  viability, T/C: 14.3%
[57]
  viability, T/C: 30.2%
[58]
  viability, T/C: 32.6%
[13]
  viability, T/C: 29.4%
[14]
  viability, T/C: 25.9%
[15]
  viability, T/C: 21.5%
[16]
  viability, T/C: 14.9%
[59]
  viability, T/C: 28.3%
[60]
  viability, T/C: 36.8%
[17]
  viability, T/C: 30.9%
[18]
  viability, T/C: 25.2%
[19]
  viability, T/C: 19.9%
[20]
  viability, T/C: 15.3%

## Cn1ncnc1C1c2n[nH]c(=O)c3cc(F)cc(c23)NC1c1ccc(F)cc1 (stereo not given) + NC1CCC(NC2CC2c2ccccc2)CC1
Second compound 0.1 µM
  IC50: > 100 nM
Second compound 0.316 µM
  IC50: 81.4 nM
Second compound 1 µM
  IC50: > 100 nM
Second compound 3.16 µM
  IC50: 28.4 nM
Second compound 10 µM
  IC50: > 100 nM
Second compound 0.1 µM, first compound 0.000316 µM
  viability, T/C: 68.7%
Second compound 0.1 µM, first compound 0.001 µM
  viability, T/C: 69%
[51]
  viability, T/C: 64.6%
[52]
  viability, T/C: 66.7%
[1]
  viability, T/C: 66.6%
[2]
  viability, T/C: 53.4%
Second compound 0.316 µM, first compound 0.000316 µM
  viability, T/C: 66.6%
Second compound 0.316 µM, first compound 0.001 µM
  viability, T/C: 60.4%
[53]
  viability, T/C: 62.1%
[54]
  viability, T/C: 52.8%
[5]
  viability, T/C: 54.2%
[6]
  viability, T/C: 49.1%
Second compound 1 µM, first compound 0.000316 µM
  viability, T/C: 67.6%
Second compound 1 µM, first compound 0.001 µM
  viability, T/C: 60.3%
[55]
  viability, T/C: 54.9%
[56]
  viability, T/C: 52.9%
[9]
  viability, T/C: 47.1%
[10]
  viability, T/C: 55.7%
Second compound 3.16 µM, first compound 0.000316 µM
  viability, T/C: 57.7%
Second compound 3.16 µM, first compound 0.001 µM
  viability, T/C: 57.1%
[57]
  viability, T/C: 58.6%
[58]
  viability, T/C: 53%
[13]
  viability, T/C: 46.8%
[14]
  viability, T/C: 46.6%
Second compound 10 µM, first compound 0.000316 µM
  viability, T/C: 59%
Second compound 10 µM, first compound 0.001 µM
  viability, T/C: 60.4%
[59]
  viability, T/C: 60.8%
[60]
  viability, T/C: 57%
[17]
  viability, T/C: 50.4%
[18]
  viability, T/C: 54.3%

## NS(=O)(=O)OCC1CC(n2ccc3c(NC4CCc5ccccc54)ncnc32)CC1O (stereo not given) + NC1CCC(NC2CC2c2ccccc2)CC1
Second compound 0.1 µM
  IC50: 16.8 nM
Second compound 0.316 µM
  IC50: 16.7 nM
Second compound 1 µM
  IC50: 16.1 nM
Second compound 3.16 µM
  IC50: 15.3 nM
Second compound 10 µM
  IC50: 12.8 nM
[21]
  viability, T/C: 83.8%
[22]
  viability, T/C: 15.6%
[23]
  viability, T/C: 3.97%
[24]
  viability, T/C: 1.88%
[25]
  viability, T/C: 1.9%
[26]
  viability, T/C: 2.04%
[27]
  viability, T/C: 83.4%
[28]
  viability, T/C: 15.3%
[29]
  viability, T/C: 4.75%
[30]
  viability, T/C: 3.14%
[31]
  viability, T/C: 2.25%
[32]
  viability, T/C: 1.88%
[33]
  viability, T/C: 77.6%
[34]
  viability, T/C: 17.4%
[35]
  viability, T/C: 4.76%
[36]
  viability, T/C: 2.36%
[37]
  viability, T/C: 2.12%
[38]
  viability, T/C: 1.71%
[39]
  viability, T/C: 72.7%
[40]
  viability, T/C: 18.4%
[41]
  viability, T/C: 4.6%
[42]
  viability, T/C: 2.14%
[43]
  viability, T/C: 1.54%
[44]
  viability, T/C: 1.63%
[45]
  viability, T/C: 62.3%
[46]
  viability, T/C: 15.6%
[47]
  viability, T/C: 4.83%
[48]
  viability, T/C: 2.29%
[49]
  viability, T/C: 1.42%
[50]
  viability, T/C: 0.82%
